Test results: US6720346B2, “Thiazole benzamide derivatives and pharmaceutical compositions for inhibiting cell proliferation” (Agouron Pharmaceuticals, Inc., priority 2001, dated 2004)
Where a name gives a salt, the structure may show the parent alone.

Tests used:
HCT-116 cell line = experiment: Inhibition of cell growth, MTT tetrazolium salt assay; format: cell-based; settings: for IC50: Homo sapiens, HCT-116, 120 h, MTT, three to five days
Method in brief: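 HCT-116 cells in McCoy's 5A were dosed 4 h after plating with compounds in 0.5% DMSO and grown 3–5 days at 37 °C. Then 0.2 mg/mL MTT was added for 4 h and formazan absorbance read at 540 nm. IC50/IC90 came from semi-log plots against DMSO-only controls.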

human CDK4/cyclin D3 = target: T1, human CDK4/cyclin D3 (Homo sapiens, UniProt P11802); experiment: Inhibition of CDK4/cyclin D retinoblastoma kinase activity (Ki; % inhibition); format: biochemical; settings: for Ki: apparent Ki, CDK4/cyclin D3, Rb substrate
T1 construct: made in house; host or cells: insect cells co-infected with baculovirus vectors
T1 sequence (P11802 whole entry): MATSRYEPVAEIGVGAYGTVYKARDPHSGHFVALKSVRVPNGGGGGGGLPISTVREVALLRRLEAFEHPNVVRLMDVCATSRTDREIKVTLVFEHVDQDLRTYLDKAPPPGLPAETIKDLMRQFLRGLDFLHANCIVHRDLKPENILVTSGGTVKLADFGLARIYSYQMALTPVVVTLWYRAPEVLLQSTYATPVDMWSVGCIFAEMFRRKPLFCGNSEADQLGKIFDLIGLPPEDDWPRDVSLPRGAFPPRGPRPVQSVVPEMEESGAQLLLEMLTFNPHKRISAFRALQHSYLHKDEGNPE
T1 sequence (P30281 1-264 partner limits assumed): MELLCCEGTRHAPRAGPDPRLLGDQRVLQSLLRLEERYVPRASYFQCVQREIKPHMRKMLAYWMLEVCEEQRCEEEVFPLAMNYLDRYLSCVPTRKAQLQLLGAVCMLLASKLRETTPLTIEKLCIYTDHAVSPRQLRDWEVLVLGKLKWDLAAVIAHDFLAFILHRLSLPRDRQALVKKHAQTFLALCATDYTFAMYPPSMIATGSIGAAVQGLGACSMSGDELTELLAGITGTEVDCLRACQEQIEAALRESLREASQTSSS
Method in brief: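 Insect-cell-expressed CDK4 with truncated cyclin D3 (1-264), 5 nM, phosphorylating His-tagged Rb fragment (386-928) with 25 μM [32/33P]ATP at pH 7.4, 30 °C, 20 min (60 min for tight binders). Filter capture, phosphorimager read; % inhibition at 30 nM compound, Ki from competitive or tight-binding fits.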

CDK2/cyclin A = target: T2, CDK2/cyclin A (Homo sapiens, UniProt P24941); experiment: Inhibition of CDK2/cyclin A retinoblastoma kinase activity (Ki; % inhibition); format: biochemical; settings: for Ki: apparent Ki, CDK2/cyclin A, Rb substrate
T2 construct: made in house; host or cells: CDK2: insect cells (baculovirus); cyclin A: E. coli
Method in brief: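 Radiometric filter assay of CDK2/proteolyzed cyclin A (baculovirus-expressed human CDK2, 10 or 19 nM) phosphorylating an Rb fragment with 25 μM [³²P/³³P]ATP in pH 7.4 HEPES, 2% DMSO, at 30 °C for 60 or 75 min under initial-rate conditions. Library compounds screened at 30 nM for % inhibition; apparent Ki from concentration series fit to competitive or tight-binding inhibition equations.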

[1] = HCT-116 cells, 0.25 μM compound

CDK4 % Inhibition at 0.03 μM (human CDK4/cyclin D3; 0.03 μM compound) [%]	CDK2 % Inhibition at 0.03 μM (CDK2/cyclin A; 0.03 μM compound) [%]	CDK4 % Inhibition at 0.03 μM (human CDK4/cyclin D3; at 0.03 μM) [%]	CDK2 % Inhibition at 0.03 μM (CDK2/cyclin A; at 0.03 μM) [%]	Compound	HCT-116 % Inhibition at 0.1 μM (HCT-116 cell line; HCT-116 cells, 0.1 μM compound) [%]	HCT-116 % Inhibition at 0.25 μM (HCT-116 cell line; [1]) [%]	HCT-116 % Inhibition at 0.25 μM (HCT-116 cell line; HCT-116, at 0.25 μM) [%]	other results
20	13			CCOC(=O)C1CCN(C(=O)c2ccc(Nc3nc(N)c(C(=O)c4c(F)cccc4F)s3)cc2)CC1 [Example G210]	15	45		
		12	2	CC(C)CN(C)C(=O)c1ccc(Nc2nc(N)c(C(=O)c3c(F)cccc3F)s2)cc1 [Example G72]			54	
				CC(C)OCCNC(=O)c1ccc(Nc2nc(N)c(C(=O)c3c(F)cccc3F)s2)cc1 [Example A7, 4-[4-Amino-5-(2,6-difluoro-benzoyl)-thiazol-2-ylamino]-N-(2-isopropoxy-ethyl)-benzamide]				IC50 (HCT-116 cell line): 0.41 µM; Ki (human CDK4/cyclin D3): 0.026 µM; Ki (CDK2/cyclin A): 0.061 µM
				CC1(C)CCCC(C)(C)N1CCNC(=O)c1ccc(Nc2nc(N)c(C(=O)c3c(F)cccc3F)s2)cc1 [Example A53, 4-[4-Amino-5-(2,6-difluoro-benzoyl)-thiazol-2-ylamino]-N-[2-(2,2,6,6-tetramethyl-piperidin-1-yl)-ethyl]-benzamide]				IC50 (HCT-116 cell line): 0.15 µM; Ki (human CDK4/cyclin D3): 0.004 µM; Ki (CDK2/cyclin A): 0.12 µM
		9	3	Nc1ccc(CCNC(=O)c2ccc(Nc3nc(N)c(C(=O)c4c(F)cccc4F)s3)cc2)cc1 [Example G105]			67	HCT-116 % Inhibition at 0.1 μM (HCT-116 cell line; HCT-116, at 0.1 μM): 24%
		12	−5	Nc1nc(Nc2ccc(C(=O)NC3CC3)cc2)sc1C(=O)c1c(F)cccc1F [Example G123]			50	HCT-116 % Inhibition at 0.1 μM (HCT-116 cell line; HCT-116, at 0.1 μM): 4%
				CC1(C)CCC(CNC(=O)c2ccc(Nc3nc(N)c(C(=O)c4c(F)cccc4F)s3)cc2)N1 (stereo not drawn) [Example A48, 4-[4-Amino-5-(2,6-difluoro-benzoyl)-thiazol-2-ylamino]-N-(5,5-dimethyl-pyrrolidin-2RS-yl-methyl)-benzamide Hydrochloride Salt]				IC50 (HCT-116 cell line): 0.58 µM; Ki (human CDK4/cyclin D3): 0.005 µM; Ki (CDK2/cyclin A): 0.055 µM
44	48			CCN(CCNC(=O)c1ccc(Nc2nc(N)c(C(=O)c3c(F)cccc3F)s2)cc1)c1cccc(C)c1 [Example G226]	15	56		
				Nc1nc(Nc2ccc(C(=O)NC[C@@H]3CCCN3)cc2)sc1C(=O)c1c(F)cccc1F [Example A8, 4-[4-Amino-5-(2,6-difluoro-benzoyl)-thiazol-2-ylamino]-N-(pyrrolidin-2S-yl-methyl)-benzamide]				IC50 (HCT-116 cell line): 0.74 µM; Ki (human CDK4/cyclin D3): 0.005 µM; Ki (CDK2/cyclin A): 0.054 µM
11	7			Nc1nc(Nc2ccc(C(=O)NCCC3=CCCCC3)cc2)sc1C(=O)c1c(F)cccc1F [Example G337]	13	52		
		2	−1	CCCCN(CC#N)C(=O)c1ccc(Nc2nc(N)c(C(=O)c3c(F)cccc3F)s2)cc1 [Example G9]			46	
		6	7	NC(=O)c1ccc(NC(=O)c2ccc(Nc3nc(N)c(C(=O)c4c(F)cccc4F)s3)cc2)cc1 [Example G85]			56	
				CC(NC(=O)c1ccc(Nc2nc(N)c(C(=O)c3c(F)cccc3F)s2)cc1)C1CCCCC1 (stereo not drawn) [Example G300]				HCT-116 % Inhibition at 0.1 μM (HCT-116 cell line; HCT-116 cells, 0.1 μM compound, 0.1 µM): 18%; HCT-116 % Inhibition at 0.25 μM (HCT-116 cell line; HCT-116 cells, 0.25 μM compound, 0.25 µM): 70%; CDK4 % Inhibition at 0.03 μM (human CDK4/cyclin D3; 0.03 μM compound, 0.03 µM): −10%; CDK2 % Inhibition at 0.03 μM (CDK2/cyclin A; 0.03 μM compound, 0.03 µM): −18%
16	9			CCN(Cc1ccccc1)C(=O)c1ccc(Nc2nc(N)c(C(=O)c3c(F)cccc3F)s2)cc1 [Example G209]	9	50		
				Nc1nc(Nc2ccc(C(=O)NCCN3CCCC3)cc2)sc1C(=O)c1c(F)cccc1F [Example A35, 4-[4-Amino-5-(2,6-difluoro-benzoyl)-thiazol-2-ylamino]-N-(2-pyrrolidin-1-yl-ethyl)-benzamide]				IC50 (HCT-116 cell line): 0.12 µM; Ki (human CDK4/cyclin D3): 0.006 µM; Ki (CDK2/cyclin A): 0.054 µM
23	15			CCCCCNC(=O)c1ccc(Nc2nc(N)c(C(=O)c3c(F)cccc3F)s2)cc1 [Example G200]	19	50		
				Nc1nc(Nc2ccc(C(=O)NCCc3cccs3)cc2)sc1C(=O)c1c(F)cccc1F [Example A26, 4-[4-Amino-5-(2,6-difluoro-benzoyl)-thiazol-2-ylamino]-N-(2-thiophen-2-yl-ethyl)-benzamide]				IC50 (HCT-116 cell line): 0.17 µM; Ki (human CDK4/cyclin D3): 0.02 µM; Ki (CDK2/cyclin A): 0.079 µM

CDK4 % Inhibition at 0.03 μM (human CDK4/cyclin D3; 0.03 μM compound) [%]	CDK2 % Inhibition at 0.03 μM (CDK2/cyclin A; 0.03 μM compound) [%]	CDK4 % Inhibition at 0.03 μM (human CDK4/cyclin D3; at 0.03 μM) [%]	CDK2 % Inhibition at 0.03 μM (CDK2/cyclin A; at 0.03 μM) [%]	Compound	HCT-116 % Inhibition at 0.1 μM (HCT-116 cell line; HCT-116 cells, 0.1 μM compound) [%]	HCT-116 % Inhibition at 0.25 μM (HCT-116 cell line; [1]) [%]	HCT-116 % Inhibition at 0.25 μM (HCT-116 cell line; HCT-116, at 0.25 μM) [%]	other results
13	−10			CCN(CC)CCN1CCN(C(=O)c2ccc(Nc3nc(N)c(C(=O)c4c(F)cccc4F)s3)cc2)CC1 [Example G374]	21	41		
5	−4			Nc1nc(Nc2ccc(C(=O)NCCCCCO)cc2)sc1C(=O)c1c(F)cccc1F [Example G274]	15	47		
		4	−1	CN(Cc1ccccc1)C(=O)c1ccc(Nc2nc(N)c(C(=O)c3c(F)cccc3F)s2)cc1 [Example G3]			50	
26	6			Nc1nc(Nc2ccc(C(=O)N3CCN(c4ccccn4)CC3)cc2)sc1C(=O)c1c(F)cccc1F [Example C201]	17	43		
		17	6	Nc1nc(Nc2ccc(C(=O)NC3CCCCC3)cc2)sc1C(=O)c1c(F)cccc1F [Example G139]			56	HCT-116 % Inhibition at 0.1 μM (HCT-116 cell line; HCT-116, at 0.1 μM): 0%
10	−5			CC(=O)c1ccc(NC(=O)c2ccc(Nc3nc(N)c(C(=O)c4c(F)cccc4F)s3)cc2)cc1 [Example G310]	14	53		
18	25			CCOC(CNC(=O)c1ccc(Nc2nc(N)c(C(=O)c3c(F)cccc3F)s2)cc1)OCC [Example G344]	24	50		
8	−2			Nc1nc(Nc2ccc(C(=O)NCCCO)cc2)sc1C(=O)c1c(F)cccc1F [Example G334]	6	41		
		13	3	Nc1nc(Nc2ccc(C(=O)N3CCSCC3)cc2)sc1C(=O)c1c(F)cccc1F [Example G26]			53	
		13	7	Nc1nc(Nc2ccc(C(=O)NCCc3ccc(Cl)cc3Cl)cc2)sc1C(=O)c1c(F)cccc1F [Example G196]			48	HCT-116 % Inhibition at 0.1 μM (HCT-116 cell line; HCT-116, at 0.1 μM): 13%
				CN(C)C1(CNC(=O)c2ccc(Nc3nc(N)c(C(=O)c4c(F)cccc4F)s3)cc2)CCCC1 [Example A77, 4-{[4-Amino-5-(2,6-difluorobenzoyl)-1,3-thiazol-2-yl]amino}-N-{[1-(dimethylamino)cyclopentyl]methyl}benzamide]				IC50 (HCT-116 cell line): 0.12 µM; Ki (human CDK4/cyclin D3): 0.0052 µM; Ki (CDK2/cyclin A): 0.084 µM
		0	10	COc1cc(NC(=O)c2ccc(Nc3nc(N)c(C(=O)c4c(F)cccc4F)s3)cc2)cc(OC)c1 [Example G86]			73	HCT-116 % Inhibition at 0.1 μM (HCT-116 cell line; HCT-116, at 0.1 μM): 39%
		21	22	Nc1nc(Nc2ccc(C(=O)N[C@@H]3CCc4ccccc43)cc2)sc1C(=O)c1c(F)cccc1F [Example G176]			62	HCT-116 % Inhibition at 0.1 μM (HCT-116 cell line; HCT-116, at 0.1 μM): 32%
		31	15	CC(CO)NC(=O)c1ccc(Nc2nc(N)c(C(=O)c3c(F)cccc3F)s2)cc1 (stereo not drawn) [Example G175]				HCT-116 % Inhibition at 0.1 μM (HCT-116 cell line; HCT-116, at 0.1 μM, 0.1 µM): 11%; HCT-116 % Inhibition at 0.25 μM (HCT-116 cell line; HCT-116, at 0.25 μM, 0.25 µM): 47%
		14	5	CCC(C)NC(=O)c1ccc(Nc2nc(N)c(C(=O)c3c(F)cccc3F)s2)cc1 (stereo not drawn) [Example G148]			48	HCT-116 % Inhibition at 0.1 μM (HCT-116 cell line; HCT-116, at 0.1 μM): 0%
14	6			Nc1nc(Nc2ccc(C(=O)NCCCCc3ccccc3)cc2)sc1C(=O)c1c(F)cccc1F [Example G291]	5	53		
